Measurements reported in BindingDB's records for patent US11344546 (Recurium Ip Holding, 2022).

Molecular target: Apoptosis regulator Bcl-2 (Homo sapiens, UniProt P10415)
Assay: Binding Assay
Experimental: Table 1: Binding to Bcl-2 proteins Bcl-2, and Bcl-XL was assessed using the Bcl2scan platform: T7 phage strains displaying BCL2 proteins were grown in parallel in 24-well blocks in an E. coli host derived from the BL21 strain. E. coli were grown to log-phase and infected with T7 phage from a frozen stock (multiplicity of infection=0.4) and incubated with shaking at 32° C. until lysis (90-150 minutes). The lysates were centrifuged (5,000×g) and filtered (0.2 μm) to remove cell debris. […] The liganded beads were blocked with excess biotin and washed with blocking buffer (SeaBlock (Pierce), 1% BSA, 0.05% Tween 20, 1 mM DTT) to remove unbound ligand and to reduce non-specific phage binding. […] Test compounds were prepared as 100× stocks in 100% DMSO. Kds were determined using an 11-point 3-fold compound dilution series with one DMSO control point. […] The compounds were then diluted directly into the assays such that the final concentration of DMSO was 0.9%. All reactions performed in polypropylene 384-well plates. Each was a final volume of 0.02 ml.

Apoptosis regulator Bcl-2, sequence (P10415 whole entry): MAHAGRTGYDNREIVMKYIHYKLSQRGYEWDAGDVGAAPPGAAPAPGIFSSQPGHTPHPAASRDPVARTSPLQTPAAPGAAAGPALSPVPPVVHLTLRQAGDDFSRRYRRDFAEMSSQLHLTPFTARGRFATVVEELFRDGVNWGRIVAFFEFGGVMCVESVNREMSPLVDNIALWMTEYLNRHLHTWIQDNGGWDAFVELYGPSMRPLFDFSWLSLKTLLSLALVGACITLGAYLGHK

With `CCC12CC(C3=C(CN4CCN(c5ccc(C(=O)NS(=O)(=O)c6ccc(OCC7(F)CCOCC7)c([N+](=O)O)c6)c(Oc6cnc7[nH]ccc7c6)c5)CC4)CCC(C)(C)C3)(C1)C2` [US11344546, Example 26] the Kd was under 10 nM.
